Measurements: article PMC6959561, “Expression of acyl-CoA-binding protein 5 from Rhodnius prolixus and its inhibition by RNA interference” (PLoS ONE, 2020)

Biological target: T1, RpACBP-5 (acyl-CoA-binding protein 5) (Rhodnius prolixus, UniProt M4WG04)
T1 construct: recombinant RpACBP-5 expressed in E. coli BL21 (DE3) (GenBank KC417418; 261 bp)
Experiment: isothermal titration calorimetry (VP-ITC, […]°C, pH […])

T1 sequence (M4WG04 entry or part of it): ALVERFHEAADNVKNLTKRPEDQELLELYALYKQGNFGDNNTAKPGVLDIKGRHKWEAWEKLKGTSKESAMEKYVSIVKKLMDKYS

Kd: 399 ± 266 nM
Structure (SMILES): CCCCCCCCCCCC(=O)SCCNC(=O)CCNC(=O)[C@H](O)C(C)(C)COP(=O)(O)OP(=O)(O)OC[C@H]1O[C@@H](n2cnc3c(N)ncnc32)[C@H](O)[C@@H]1OP(=O)(O)O [lauroyl-CoA]
